Assay results from patent US5464835A, “Use for bis-heterocyclic compounds and pharmaceutical compositions containing same” (Harbor Branch Oceanographic Institution, Inc., priority 1994, dated 1995).
pIC50: −log10 of the molar value.

What was measured:
[1] = target: bee venom phospholipase A2 (Apis mellifera, UniProt P00630); test: biochemical; format: biochemical; settings: for inhibition at 1.6 µM: final concentration 1.6 μM; for inhibition at 1.6 µM / inhibition at 1 µM: read-out: % Inactivation of bee venom phospholipase A2; for inhibition at 1 µM: final concentration 1 μM
[2] = tested on: Candida albicans; test: Antifungal activity against Candida albicans (MIC, RPMI-1640 growth medium); format: cell-based
[3] = tested on: PMA-induced mouse ear edema; test: Mouse ear anti-inflammatory assay (topical inhibition of PMA-induced edema); settings: for % Inhibition of edema / ED50, topical inhibition of PMA-induced mouse ear edema: topical; for % Inhibition of edema: Table 3; for percent inhibition of mouse ear edema (dose-response): FIG. 3; for inhibition of PMA-induced edema / anti-inflammatory activity (in words): result in words; for percent inhibition of edema (dose-response): FIG. 2; for ED50, topical inhibition of PMA-induced mouse ear edema: simultaneous with PMA, 3 h 20 min, Table 2
Description: A. Mouse ear anti-inflammatory assay. The test compound and a known inflammatory agent, phorbol myristate acetate (PMA), are topically applied simultaneously to the left ears of mice. Three hours and 20 minutes following application, the mice are sacrificed. Both left and right ears are removed and standard-sized bores taken. Edema (inflammation) is measured as the difference in weight between left and right ears (Van Arman, C. G. [1974] Clin. Pharmacol. Ther. 16:900-904).

bee venom phospholipase A2, sequence (P00630 34-167 limits assumed): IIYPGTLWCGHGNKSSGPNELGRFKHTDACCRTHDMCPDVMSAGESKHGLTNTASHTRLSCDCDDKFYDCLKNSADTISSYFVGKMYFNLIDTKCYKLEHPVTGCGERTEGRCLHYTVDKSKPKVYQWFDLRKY

O=C1NCC(c2c[nH]c3cc(Br)ccc23)N=C1c1c[nH]c2cc(Br)ccc12 (stereo not shown) [Hamacanthin B]
inhibition at 1.6 µM ([1]; 1 h): 32% | antifungal activity (in words) [2]: active components | % Inhibition of edema ([3]; dose 50 μM (so in the source)): 34.0%

Brc1ccc2c(-c3nc(-c4c[nH]c5ccccc45)c[nH]3)c[nH]c2c1 [Nortopsentin B, nortopsentin B]
inhibition at 1 µM ([1]; 1 h): 27% | % Inhibition of edema ([3]; dose 50 μg/ear): 38.2%

O=C(c1nc(-c2c[nH]c3cc(Br)ccc23)c[nH]1)c1c[nH]c2cc(O)ccc12 [Bromotopsentin]
inhibition at 1 µM ([1]; 1 h): 33% | percent inhibition of mouse ear edema (dose-response) ([3]; 50 μg/ear): about 75% | percent inhibition of mouse ear edema (dose-response) ([3]; approximately 25 μg/ear): about 20% | % Inhibition of edema ([3]; dose 50 μg/ear): 75.4% | inhibition of PMA-induced edema / anti-inflammatory activity (in words) [3]: significant potency

CC(=O)Oc1ccc2c(C(=O)c3ncc(-c4c[nH]c5ccccc45)[nH]3)c[nH]c2c1 [Topsentin monoacetate]
inhibition at 1 µM ([1]; 1 h): 42% | % Inhibition of edema ([3]; dose 50 μg/ear): 45.8% | inhibition of PMA-induced edema / anti-inflammatory activity (in words) [3]: moderate activity

O=C(c1nc(-c2c[nH]c3ccccc23)c[nH]1)c1c[nH]c2cc(O)ccc12 [Topsentin]
pIC50 [1]: 6.30 | inactivation of bee venom phospholipase A2 (in words) [1]: capable of the inactivation of bee venom phospholipase A2 | inhibition at 2 µM ([1]; 1 h, read-out: percent inactivation of bee venom phospholipase A2 (dose-response)): ≤ 80% | inhibition at 1 µM ([1]; 1 h): 67% | percent inhibition of edema (dose-response) ([3]; 100 μg/ear): more than 90% | percent inhibition of edema (dose-response) ([3]; about 12 μg/ear): ~50% | % Inhibition of edema ([3]; dose 50 μg/ear): 70.6% | inhibition of PMA-induced edema / anti-inflammatory activity (in words) [3]: significant potency | inhibition of PMA-induced edema / anti-inflammatory activity (in words) ([3]; listed as topsentin): greater potency than to the known anti-inflammatories hydrocortisone, indomethacin, and manoalide | ED50, topical inhibition of PMA-induced mouse ear edema [3]: 15 μg/ear

Brc1ccc2c(-c3c[nH]c(-c4c[nH]c5ccccc45)n3)c[nH]c2c1 [Nortopsentin C, nortopsentin C]
inhibition at 1 µM ([1]; 1 h): 26% | % Inhibition of edema ([3]; dose 50 μg/ear): 70.1% | inhibition of PMA-induced edema / anti-inflammatory activity (in words) [3]: significant potency

COc1ccc2c(c1)c(CC(=O)O)c(C)n2C(=O)c1ccc(Cl)cc1 [Indomethacin, reference compound]
pIC50 [1]: < 3.00 | inactivation of bee venom phospholipase A2 (in words) [1]: inactive | ED50, topical inhibition of PMA-induced mouse ear edema [3]: 250 μg/ear

C[C@]12CCC(=O)C=C1CC[C@@H]1[C@@H]2[C@@H](O)C[C@@]2(C)[C@H]1CC[C@]2(O)C(=O)CO [Hydrocortisone, reference compound]
pIC50 [1]: < 3.00 | inactivation of bee venom phospholipase A2 (in words) [1]: inactive | ED50, topical inhibition of PMA-induced mouse ear edema [3]: 20 μg/ear

CC(=O)Oc1ccc2c(C(=O)c3ncc(-c4c[nH]c5ccccc45)n3C(C)=O)c[nH]c2c1 [Topsentin diacetate, topsentin diacetate]
inhibition at 1 µM ([1]; 1 h): 32% | % Inhibition of edema ([3]; dose 50 μg/ear): 42.6% | inhibition of PMA-induced edema / anti-inflammatory activity (in words) [3]: moderate activity

CN1CC(c2c[nH]c3c(Br)c(Br)cc(O)c23)NCC1c1c[nH]c2cc(Br)ccc12 (stereo not shown) [Dragmacidin]
inhibition at 1 µM ([1]; 1 h): 27% | % Inhibition of edema ([3]; dose 50 μg/ear): 64.0% | inhibition of PMA-induced edema / anti-inflammatory activity (in words) [3]: significant potency

CC1=C(CC/C(C)=C/CCC2=CC[C@H](C3=CC(=O)O[C@H]3O)O[C@H]2O)C(C)(C)CCC1 [Manoalide, reference compound]
pIC50 [1]: 7.30 | ED50, topical inhibition of PMA-induced mouse ear edema [3]: 100 μg/ear

Brc1ccc2c(-c3c[nH]c(-c4c[nH]c5cc(Br)ccc45)n3)c[nH]c2c1 [Nortopsentin A]
inhibition at 1 µM ([1]; 1 h): 30% | % Inhibition of edema ([3]; dose 50 μg/ear): 98.1% | inhibition of PMA-induced edema / anti-inflammatory activity (in words) [3]: significant potency

O=C1NC(c2c[nH]c3cc(Br)ccc23)CN=C1c1c[nH]c2cc(Br)ccc12 (stereo not shown) [Hamacanthin A]
inhibition at 1.6 µM ([1]; 1 h): 37% | antifungal activity (in words) [2]: active components | % Inhibition of edema ([3]; dose 50 μM (so in the source)): 50.0%
